From the supplement of paper PMC11208160
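Further: IS621 bridge recombinase in Escherichia coli cells against a fixed T5 target plasmid.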

Assay: recombinant UMI read abundance after kanamycin selection (control-corrected) (log10(CPM+1)); higher = more efficient recombination; extreme values may be limits of the assay; sequences stand for … in AGTGCAGAGAAAATCGGCCAGTTTTCTCTGCCTGCAGTCCGCATGCCGTGGGACCCCTTGGGTTCTAACCTGTTGCCTAGATTTATGCAGCGGACTGCCTTTCTCCCAAAGTGATAAACCGG…AGGTTGGTTTCACT; site = the 11-nt donor
Outline: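 Reported values are log10(CPM+1) from a pooled Escherichia coli screen of donor and donor-binding-loop pairs for the IS621 bridge recombinase. Selection used IPTG (0.07 mM) plus kanamycin, against unselected plating, each in two replicates. Recombinant UMIs were amplified across the donor–target junction, sequenced, converted to CPM, averaged over replicates and scaled by control-derived factors.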
For “ATAGCTGCATGGACCGGTTTTCCCGGTAATCCGTATTTGTG (site GTAGCTGCTCA)”, the “recombinant UMI read abundance (log10)” value was 0.00767. With “ATAGCTGCATGGACCGGTTTTCCCGGTAATCCGTATTTGTG (site TTAGCTGCTCA)” the “recombinant UMI read abundance (log10)” value was 0.0149. For “ATAGGACCATGGACCGGTTTTCCCGGTAATCCGTATTTGCT (site ATAGGACCTAG)”, the “recombinant UMI read abundance (log10)” value was 0. With “ATAGTAACATGGACCGGTTTTCCCGGTAATCCGTATTTGAG (site ATAGTAACTCT)” the “recombinant UMI read abundance (log10)” value was 2.18. In the case of “ATAGTACCATGGACCGGTTTTCCCGGTAATCCGTATTTGAC (site ATAGTACCTGT)”, the “recombinant UMI read abundance (log10)” value is reported as 0. For “ATAGTAGCATGGACCGGTTTTCCCGGTAATCCGTATTTGAC (site ATAGTAGCTGT)”, the “recombinant UMI read abundance (log10)” value was 3.06. For “ATAGTAGCATGGACCGGTTTTCCCGGTAATCCGTATTTGAC (site CTAGTATCTGT)”, the “recombinant UMI read abundance (log10)” value was 0. In the case of “ATAGTATCATGGACCGGTTTTCCCGGTAATCCGTATTTGAA (site ATAGTATCTTT)”, the “recombinant UMI read abundance (log10)” value is reported as 3.09. For “ATAGTATCATGGACCGGTTTTCCCGGTAATCCGTATTTGAA (site CTAGTATCTGT)”, the “recombinant UMI read abundance (log10)” value was 0.977. With “ATATAGGCATGGACCGGTTTTCCCGGTAATCCGTATTTGGC (site ATATAGGCTGC)” the “recombinant UMI read abundance (log10)” value was 2.39. With “ATATAGGCATGGACCGGTTTTCCCGGTAATCCGTATTTGGC (site ATCTAGGCTGC)” the “recombinant UMI read abundance (log10)” value was 1.31. With “ATATAGGCATGGACCGGTTTTCCCGGTAATCCGTATTTGGC (site ATGTAGGCTGC)” the “recombinant UMI read abundance (log10)” value was 1.08. In the case of “ATATAGGCATGGACCGGTTTTCCCGGTAATCCGTATTTGGC (site ATTTAGGCTGC)”, the “recombinant UMI read abundance (log10)” value is reported as 0.00901. For “ATATATCCATGGACCGGTTTTCCCGGTAATCCGTATTTGGT (site ATATATCCTAC)”, the “recombinant UMI read abundance (log10)” value was 0.648. In the case of “ATATGCACATGGACCGGTTTTCCCGGTAATCCGTATTTGTA (site ATATGCACTTA)”, the “recombinant UMI read abundance (log10)” value is reported as 2.49. In the case of “ATATGCACATGGACCGGTTTTCCCGGTAATCCGTATTTGTA (site CTATGCACTTA)”, the “recombinant UMI read abundance (log10)” value is reported as 0.913. For “ATATGCACATGGACCGGTTTTCCCGGTAATCCGTATTTGTA (site GTATGCACTTA)”, the “recombinant UMI read abundance (log10)” value was 0.909. In the case of “ATATGCACATGGACCGGTTTTCCCGGTAATCCGTATTTGTA (site TTATGCACTTA)”, the “recombinant UMI read abundance (log10)” value is reported as 1.66. For “ATATGGACATGGACCGGTTTTCCCGGTAATCCGTATTTGAC (site ATATGGACTGT)”, the “recombinant UMI read abundance (log10)” value was 2.7. With “ATCAACTCATGGACCGGTTTTCCCGGTAATCCGTATTTGTG (site ATCAACTCTCA)” the “recombinant UMI read abundance (log10)” value was 2.13. In the case of “ATCCACGCATGGACCGGTTTTCCCGGTAATCCGTATTTGAG (site ATCCAAGCTCT)”, the “recombinant UMI read abundance (log10)” value is reported as 0.00979. With “ATCCACGCATGGACCGGTTTTCCCGGTAATCCGTATTTGAG (site ATCCACGCTCT)” the “recombinant UMI read abundance (log10)” value was 0.817. With “ATCCACGCATGGACCGGTTTTCCCGGTAATCCGTATTTGAG (site ATCCAGGCTCT)” the “recombinant UMI read abundance (log10)” value was 0.0164. In the case of “ATCCACGCATGGACCGGTTTTCCCGGTAATCCGTATTTGAG (site ATCCATGCTCT)”, the “recombinant UMI read abundance (log10)” value is reported as 0.00887. In the case of “ATCCGAGCATGGACCGGTTTTCCCGGTAATCCGTATTTGAG (site ATCCAAGCTCT)”, the “recombinant UMI read abundance (log10)” value is reported as 0.696. With “ATCCGAGCATGGACCGGTTTTCCCGGTAATCCGTATTTGAG (site ATCCCAGCTCT)” the “recombinant UMI read abundance (log10)” value was 0.172. With “ATCCGAGCATGGACCGGTTTTCCCGGTAATCCGTATTTGAG (site ATCCGAGCTCT)” the “recombinant UMI read abundance (log10)” value was 0.924. With “ATCCGAGCATGGACCGGTTTTCCCGGTAATCCGTATTTGAG (site ATCCTAGCTCT)” the “recombinant UMI read abundance (log10)” value was 0.0162. With “ATCCGATCATGGACCGGTTTTCCCGGTAATCCGTATTTGGT (site ATCCGATCTAC)” the “recombinant UMI read abundance (log10)” value was 0.721. With “ATCCTATCATGGACCGGTTTTCCCGGTAATCCGTATTTGAC (site ATCCTATCTGT)” the “recombinant UMI read abundance (log10)” value was 1.58. With “ATCCTGGCATGGACCGGTTTTCCCGGTAATCCGTATTTGAC (site ATCCTGGCTGT)” the “recombinant UMI read abundance (log10)” value was 0. In the case of “ATCGATACATGGACCGGTTTTCCCGGTAATCCGTATTTGAC (site ATCAATACTGT)”, the “recombinant UMI read abundance (log10)” value is reported as 1.49.
